The record followed here is patent US20260226068A1, “IMIDAZOTRIAZINE IL-17A MODULATORS AND USES THEREOF” (DICE ALPHA, INC., priority 2023, published 2026).

One assay has as its target T1, IL-17A/A (Homo sapiens, UniProt Q16552).
T1 construct: purchased Genscript Z03228
T1 sequence (Q16552 24-155): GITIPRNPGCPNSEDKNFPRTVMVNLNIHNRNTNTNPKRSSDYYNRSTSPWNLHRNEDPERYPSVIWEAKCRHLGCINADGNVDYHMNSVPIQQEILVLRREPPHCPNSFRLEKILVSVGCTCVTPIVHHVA
The experiment in a line: IL-17A/A HEK-Blue cell assay (SEAP reporter). To be noted: HEK-Blue IL-17A reporter cells, IL17A/A 5 ng/mL, 20 hours, SEAP read at A630; read-out: HEK-Blue IL17AA (IC50 for IL-17A/A inhibition). The format is cell-based.

Another assay concerns the target T2, IL-17A/F (Homo sapiens, UniProt Q16552+Q96PD4).
T2 construct: purchased R&D Systems
T2 sequence (Q16552 24-155): T1 sequence (Q16552 24-155)
T2 sequence (Q96PD4 31-163): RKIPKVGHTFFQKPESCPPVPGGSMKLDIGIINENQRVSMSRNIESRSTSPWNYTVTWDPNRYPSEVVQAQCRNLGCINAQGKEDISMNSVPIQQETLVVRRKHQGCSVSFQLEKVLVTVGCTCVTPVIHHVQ
Kind of assay: IL-17A/F HEK-Blue cell assay (SEAP reporter). The format is cell-based. To be noted: HEK-Blue IL-17A reporter cells, IL17A/F 5 ng/mL, 20 hours, SEAP read at A630; read-out: HEK-Blue IL17AF (IC50 for IL-17A/F inhibition).

As for `CCn1ncnc1C(=O)N[C@H](c1cn2nc(C[C@H]3C[C@@H](C(F)(F)F)CNC3=O)c(C3CCOCC3)nc2n1)C1CCC(F)(F)CC1` [Compound 363, N—((S)-(4,4-difluorocyclohexyl)(2-(((3R,5R)-2-oxo-5-(trifluoromethyl)piperidin-3-yl)methyl)-3-(tetrahydro-2H-pyran-4-yl)imidazo[1,2-b][1,2,4]triazin-6-yl)methyl)-1-ethyl-1H-1,2,4-triazole-5-carboxamide], the IC50 was below 100 nM on IL-17A/A and above 1000 nM on IL-17A/F.
For the compound `O=C(N[C@H](c1cn2nc(C[C@H]3C[C@@H](C(F)(F)F)CNC3=O)c(C3CCOCC3)nc2n1)C1CCC(F)(F)CC1)c1ccnn1CC(F)(F)F` [Compound 186, N-((1S)-(4,4-difluorocyclohexyl)(2-(((3R,5R)-2-oxo-5-(trifluoromethyl)piperidin-3-yl)methyl)-3-(tetrahydro-2H-pyran-4-yl)imidazo[1,2-b][1,2,4]triazin-6-yl)methyl)-1-(2,2,2-trifluoroethyl)-1H-pyrazole-5-carboxamide], the IC50 on IL-17A/A was below 100 nM; at IL-17A/F, 100 to 1000 nM.
The corresponding values for `CCn1nccc1C(=O)N[C@H](c1cn2nc(CC3C[C@@H](C(F)(F)F)CNC3=O)c(N3CC4CC(C3)O4)nc2n1)[C@H]1CCCC(F)(F)C1` (single isomer, unassigned) [Compound 93] are below 100 nM and 100 to 1000 nM.
Turning to `CCn1nccc1C(=O)N[C@H](c1cn2nc(C[C@H]3C[C@@H](C(F)(F)F)CNC3=O)c(N(C)C3CC3)nc2n1)C1CCC(F)(F)CC1` [Compound 143, N—((S)-(3-(cyclopropyl(methyl)amino)-2-(((3R,5R)-2-oxo-5-(trifluoromethyl)piperidin-3-yl)methyl)imidazo[1,2-b][1,2,4]triazin-6-yl)(4,4-difluorocyclohexyl)methyl)-1-ethyl-1H-pyrazole-5-carboxamide], the IC50 is below 100 nM at IL-17A/A and 100 to 1000 nM at IL-17A/F.
Regarding `CCn1nccc1C(=O)N[C@H](c1cn2nc(C[C@H]3C[C@@H](C(F)(F)F)CNC3=O)c(C(C)C(F)(F)F)nc2n1)C1CCC(F)(F)CC1` (stereo partly drawn) [Compound 214, N-((1S)-(4,4-difluorocyclohexyl)(2-(((3R,5R)-2-oxo-5-(trifluoromethyl)piperidin-3-yl)methyl)-3-(1,1,1-trifluoropropan-2-yl)imidazo[1,2-b][1,2,4]triazin-6-yl)methyl)-1-ethyl-1H-pyrazole-5-carboxamide], the IC50 at IL-17A/A is below 100 nM; on IL-17A/F it was 100 to 1000 nM.
The corresponding values for `O=C(N[C@H](c1cn2nc(CC3C[C@@H](C(F)(F)F)CNC3=O)c(N3CCOCC3)nc2n1)C1CCC(F)(F)CC1)c1nonc1C1CC1` (single isomer, unassigned) [Compound 21] are below 100 nM and above 1000 nM.
As to `Cc1nocc1C(=O)N[C@H](c1cn2nc(C[C@H]3C[C@@H](C(F)(F)F)CNC3=O)c(C3CCOCC3)nc2n1)C1CCC(F)(F)CC1` [Compound 189, N-((1S)-(4,4-difluorocyclohexyl)(2-(((3R,5R)-2-oxo-5-(trifluoromethyl)piperidin-3-yl)methyl)-3-(tetrahydro-2H-pyran-4-yl)imidazo[1,2-b][1,2,4]triazin-6-yl)methyl)-3-methylisoxazole-4-carboxamide], the results for the IC50 at IL-17A/A and on IL-17A/F were below 100 nM and 100 to 1000 nM, respectively.
Regarding `CCn1nccc1C(=O)N[C@H](c1cn2nc(C[C@H]3C(=O)NC4CC3C4)c(C3CCOCC3)nc2n1)C1CCC(F)(F)CC1` [Compound 426], the results for the IC50 on IL-17A/A and on IL-17A/F were below 100 nM and above 1000 nM, respectively.
`CCn1nccc1C(=O)N[C@H](c1cn2nc(CC3CC(F)(F)CNC3=O)c(N3CCOCC3)nc2n1)C1CCC(F)(F)CC1` (single isomer, unassigned) [Compound 65]: the IC50 on IL-17A/A is below 100 nM; on IL-17A/F it was above 1000 nM.
On to `CCn1nccc1C(=O)N[C@H](c1cn2nc(C[C@H]3C[C@@H](C(F)(F)F)CNC3=O)c(C3CN(C)C3)nc2n1)C1CCC(F)(F)CC1` [Compound 302, N—((S)-(4,4-difluorocyclohexyl)(3-(1-methylazetidin-3-yl)-2-(((3R,5R)-2-oxo-5-(trifluoromethyl)piperidin-3-yl)methyl)imidazo[1,2-b][1,2,4]triazin-6-yl)methyl)-1-ethyl-1H-pyrazole-5-carboxamide], for which the IC50 at IL-17A/A is below 100 nM; on IL-17A/F, above 1000 nM.
As for `CCn1nccc1C(=O)N[C@H](c1cn2nc(C[C@H]3C[C@@H](C(F)(F)F)CNC3=O)c(N(C)C)nc2n1)[C@H]1CCCC(F)(F)C1` [Compound 117, N—((S)—((S)-3,3-difluorocyclohexyl)(3-(dimethylamino)-2-(((3R,5R)-2-oxo-5-(trifluoromethyl)piperidin-3-yl)methyl)imidazo[1,2-b][1,2,4]triazin-6-yl)methyl)-1-ethyl-1H-pyrazole-5-carboxamide], the figures for the IC50 on IL-17A/A and at IL-17A/F were below 100 nM and 100 to 1000 nM, respectively.
Regarding `CCn1nccc1C(=O)N[C@H](c1cn2nc(CC3C[C@@H](C(F)(F)F)CNC3=O)c(N3CCOCC3)nc2n1)[C@H]1CC[C@H](C)CC1` (single isomer, unassigned) [Compound 23], the IC50 at IL-17A/A was below 100 nM; at IL-17A/F, above 1000 nM.
The corresponding values for `O=C(N[C@H](c1cn2nc(C[C@H]3C[C@@H](C(F)(F)F)CNC3=O)c(C3CCCOC3)nc2n1)[C@@H]1CCCC(F)(F)C1)c1nonc1C1CC1` (single isomer, unassigned) [Compound 210] are below 100 nM and 100 to 1000 nM.
Take `CCn1nccc1C(=O)N[C@H](c1cn2nc(C[C@H]3C[C@@H](C(F)(F)F)CNC3=O)c(C(C)C)nc2n1)[C@H]1CCCC(F)(F)C1` [Compound 205, N-((1S)—((S)-3,3-difluorocyclohexyl)(3-isopropyl-2-(((3R,5R)-2-oxo-5-(trifluoromethyl)piperidin-3-yl)methyl)imidazo[1,2-b][1,2,4]triazin-6-yl)methyl)-1-ethyl-1H-pyrazole-5-carboxamide]: the IC50 at IL-17A/A and on IL-17A/F was below 100 nM each time.
Turning to `CCn1nccc1C(=O)N[C@H](c1cn2nc(C[C@H]3C[C@@H](C(F)(F)F)CNC3=O)c(C(C)(C)C3CCOCC3)nc2n1)C1CCC(F)(F)CC1` [Compound 169, N-((1S)-(4,4-difluorocyclohexyl)(2-(((3R,5R)-2-oxo-5-(trifluoromethyl)piperidin-3-yl)methyl)-3-(2-(tetrahydro-2H-pyran-4-yl)propan-2-yl)imidazo[1,2-b][1,2,4]triazin-6-yl)methyl)-1-ethyl-1H-pyrazole-5-carboxamide], the IC50 is below 100 nM on IL-17A/A and above 1000 nM at IL-17A/F.
The corresponding values for `CCn1nccc1C(=O)N[C@H](c1cn2nc(C[C@H]3C[C@@H](C(F)(F)F)CNC3=O)c(C(C)(F)F)nc2n1)C1CCC(F)(F)CC1` [Compound 273, N—((S)-(4,4-difluorocyclohexyl)(3-(1,1-difluoroethyl)-2-(((3R,5R)-2-oxo-5-(trifluoromethyl)piperidin-3-yl)methyl)imidazo[1,2-b][1,2,4]triazin-6-yl)methyl)-1-ethyl-1H-pyrazole-5-carboxamide] are below 100 nM and above 1000 nM.
Regarding `O=C(N[C@H](c1cn2nc(CC3C[C@@H](C(F)(F)F)CNC3=O)c(N3CCOCC3)nc2n1)C1CCC(F)(F)CC1)c1nonc1C1CC1` (single isomer, unassigned) [Compound 20], the IC50 is below 100 nM at IL-17A/A and above 1000 nM at IL-17A/F.
In the case of `Cn1nccc1C(=O)N[C@H](c1cn2nc(C[C@H]3C[C@@H](C(F)(F)F)CNC3=O)c(C3CCOCC3)nc2n1)C1CCCCCC1` [Compound 290, N—((S)-cycloheptyl(2-(((3R,5R)-2-oxo-5-(trifluoromethyl)piperidin-3-yl)methyl)-3-(tetrahydro-2H-pyran-4-yl)imidazo[1,2-b][1,2,4]triazin-6-yl)methyl)-1-methyl-1H-pyrazole-5-carboxamide], the IC50 at IL-17A/A and at IL-17A/F was below 100 nM each time.
For `CCn1nccc1C(=O)N[C@H](c1cn2nc(C[C@H]3C[C@@H](C(F)(F)F)CNC3=O)c(N3CCN(C)[C@@H](C)C3)nc2n1)C1CCC(F)(F)CC1` [Compound 200], the figures for the IC50 on IL-17A/A and at IL-17A/F were below 100 nM and 100 to 1000 nM, respectively.
For `CCn1nccc1C(=O)N[C@H](c1cn2nc(C[C@H]3C[C@@H](C(F)(F)F)CNC3=O)c(CN3CC(C)(F)C3)nc2n1)C1CCC(F)(F)CC1` [Compound 337, N—((S)-(4,4-difluorocyclohexyl)(3-((3-fluoro-3-methylazetidin-1-yl)methyl)-2-(((3R,5R)-2-oxo-5-(trifluoromethyl)piperidin-3-yl)methyl)imidazo[1,2-b][1,2,4]triazin-6-yl)methyl)-1-ethyl-1H-pyrazole-5-carboxamide], the IC50 at IL-17A/A is below 100 nM; at IL-17A/F, above 1000 nM.
Consider `CCn1nccc1C(=O)N[C@H](c1cn2nc(C[C@H]3C[C@H](C(F)(F)F)CNC3=O)c(N3CCO[C@@H](C)C3)nc2n1)[C@@H]1CCCC(F)(F)C1` [Compound 306, N—((S)—((R)-3,3-difluorocyclohexyl)(3-((S)-2-methylmorpholino)-2-(((3R,5S)-2-oxo-5-(trifluoromethyl)piperidin-3-yl)methyl)imidazo[1,2-b][1,2,4]triazin-6-yl)methyl)-1-ethyl-1H-pyrazole-5-carboxamide], for which the IC50 was below 100 nM on IL-17A/A and 100 to 1000 nM at IL-17A/F.
With `CCn1nccc1C(=O)N[C@H](c1cn2nc(CC3C[C@@H](C(F)(F)F)CNC3=O)c(N3C[C@H]4CC[C@@H](C3)O4)nc2n1)C1CCC(F)(F)CC1` (single isomer, unassigned) [Compound 84], the IC50 on IL-17A/A is below 100 nM; at IL-17A/F it was 100 to 1000 nM.
